The source of these data is PubChem BioAssay (NCI).

Among the test systems are HT29 colon; OVCAR-4 ovarian; HCC-2998 colon; U251 CNS; NCI-H522 lung; KM12 colon; SR leukemia; NCI-H460 lung; SF-295 CNS.
Test in all cases: inhibition of tumour cell growth, NCI panel, 48 h

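Following 48 hours of exposure in 96-well plates, responses at five concentrations were used to interpolate endpoints linearly. TGI marks complete inhibition of growth.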

For `O[C@@H]1C[C@H](Cl)c2c(Cl)sc(Cl)c21`, the TGI in the assay on HT29 colon, in the assay with OVCAR-4 ovarian, with HCC-2998 colon, with U251 CNS, with NCI-H522 lung and in the assay on KM12 colon was more than 100 µM each time. In addition, the TGI in the assay with SR leukemia, in the assay with NCI-H460 lung and in the assay on SF-295 CNS was more than 100 µM each time.

For `N[C@H]1c2c(Br)sc(Br)c2C(=O)[C@H]1O`, the TGI was 30.8 µM with HT29 colon; 27 µM in the assay on OVCAR-4 ovarian; 27.5 µM with HCC-2998 colon; 29.7 µM in the assay with U251 CNS; 8.97 µM in the assay on NCI-H522 lung; more than 100 µM with KM12 colon. For the same compound, the TGI in the assay on SR leukemia was 5.79 µM; in the assay with NCI-H460 lung it was 35.6 µM; with SF-295 CNS it was 51.1 µM.

As for `CC(C)(C)COC(=O)C(C)(C)NC(=O)C(CC(=O)OCc1ccccc1)NC(=O)OCc1ccccc1` (stereo not drawn), the TGI with HT29 colon is 87.9 µM; in the assay with OVCAR-4 ovarian it was more than 100 µM; in the assay with HCC-2998 colon, more than 100 µM; in the assay with U251 CNS it was more than 100 µM; in the assay with NCI-H522 lung, more than 100 µM; in the assay on KM12 colon, more than 100 µM. The TGI in the assay on SR leukemia, in the assay on NCI-H460 lung and with SF-295 CNS was more than 100 µM throughout.

Turning to `Cn1c(-c2ccc[se]2)ccc1-c1ccc(C=O)[se]1`, the TGI with HT29 colon is more than 100 µM; with OVCAR-4 ovarian, more than 61.1 µM; in the assay on HCC-2998 colon it was more than 53.5 µM; in the assay with U251 CNS, 25.4 µM; in the assay on NCI-H522 lung, 35.2 µM; in the assay on KM12 colon it was more than 100 µM. In addition, the values for the TGI in the assay on SR leukemia, with NCI-H460 lung and in the assay with SF-295 CNS were more than 100 µM, 24.2 µM and 58.8 µM, respectively.

Turning to `C/C=C1/CN2CCC34c5ccccc5N(C)C23C2CC1C4(C(=O)OC)C(OC(C)=O)O2` (stereo not drawn), the TGI in the assay with HT29 colon, in the assay with OVCAR-4 ovarian, with HCC-2998 colon, in the assay on U251 CNS, in the assay with NCI-H522 lung and in the assay on KM12 colon was more than 100 µM each time. Besides, the TGI in the assay with SR leukemia, in the assay with NCI-H460 lung and in the assay on SF-295 CNS was more than 100 µM in each case.

Take `COc1ccc(-n2c(SC(CN3CCOCC3)CN3CCCC3=O)nc3ccccc3c2=O)cc1` (stereo not drawn): the TGI with HT29 colon, in the assay with OVCAR-4 ovarian, with HCC-2998 colon, in the assay with U251 CNS, with NCI-H522 lung and in the assay on KM12 colon was more than 100 µM each time. Moreover, the TGI in the assay on SR leukemia, in the assay with NCI-H460 lung and in the assay with SF-295 CNS was more than 100 µM throughout.

Turning to `CCn1c2nc(=O)n(CCCCCCCCSC(c3ccccc3)(c3ccccc3)c3ccccc3)c(=O)c-2nc2ccccc21`, the TGI is 18.1 µM in the assay on HT29 colon; more than 100 µM in the assay on OVCAR-4 ovarian; 19.6 µM in the assay on HCC-2998 colon; more than 100 µM in the assay with U251 CNS; more than 100 µM in the assay on NCI-H522 lung; more than 100 µM with KM12 colon. The TGI in the assay with SR leukemia, in the assay with NCI-H460 lung and in the assay with SF-295 CNS was more than 100 µM in each case.

For `O=c1[nH]c2ccccc2c(O)c1Cc1ccccc1`, the TGI with HT29 colon, with OVCAR-4 ovarian, with HCC-2998 colon, in the assay with U251 CNS, with NCI-H522 lung and in the assay with KM12 colon was more than 100 µM each time. Further, the TGI in the assay on SR leukemia, in the assay on NCI-H460 lung and in the assay on SF-295 CNS was more than 100 µM in each case.

Turning to `O=C(c1ccccc1)N1CCN(C(=S)NC2CCCCC2)C1=S`, the TGI worked out at 44.1 µM in the assay with HT29 colon; 40.8 µM with OVCAR-4 ovarian; 33.1 µM with HCC-2998 colon; 21.6 µM with U251 CNS; 30.6 µM in the assay on NCI-H522 lung; 30.9 µM with KM12 colon. Moreover, the TGI with SR leukemia was 88.7 µM; with NCI-H460 lung it was 49.5 µM; with SF-295 CNS it was 54.4 µM.

With `Oc1c(CN2CCCC2)ccc2cccnc12`, the TGI is more than 69 µM in the assay on HT29 colon; more than 100 µM in the assay on OVCAR-4 ovarian; more than 100 µM in the assay on HCC-2998 colon; more than 100 µM in the assay with U251 CNS; more than 100 µM with NCI-H522 lung; more than 100 µM in the assay on KM12 colon. Moreover, the TGI in the assay on SR leukemia is more than 100 µM; in the assay on NCI-H460 lung it was more than 84.6 µM; in the assay with SF-295 CNS it was more than 100 µM.

As to `Cc1cc2c(c(C(=O)NCC(=O)N[C@@H](C)C(=O)OCc3ccccc3)c1)Oc1c(cc(C)cc1C(=O)NCC(=O)N[C@@H](C)C(=O)OCc1ccccc1)S2`, the TGI with HT29 colon, in the assay on OVCAR-4 ovarian, in the assay on HCC-2998 colon, in the assay with U251 CNS, in the assay on KM12 colon and in the assay on SR leukemia was more than 100 µM throughout. Besides, the TGI with NCI-H460 lung and in the assay on SF-295 CNS was more than 100 µM in each case.

`CCOP(=O)(CCCC(O)CNc1nc(N)nc(Cl)c1N=Nc1ccc(Cl)cc1)OCC` (stereo not drawn): the TGI came to 23.4 µM in the assay on HT29 colon; 17.6 µM in the assay on OVCAR-4 ovarian; 30.6 µM in the assay on HCC-2998 colon; 22.7 µM with U251 CNS; 17 µM with NCI-H522 lung; 25 µM in the assay on KM12 colon. In addition, the TGI is 6.82 µM with SR leukemia, 37 µM in the assay with NCI-H460 lung and 21.7 µM in the assay with SF-295 CNS.

For the compound `Cn1c(-c2ccc(-c3cc(-c4cccs4)c(-c4cccs4)n3C)cc2)cc(-c2cccs2)c1-c1cccs1`, the TGI in the assay on HT29 colon, in the assay with OVCAR-4 ovarian, in the assay on HCC-2998 colon, in the assay on U251 CNS, in the assay on KM12 colon and in the assay with SR leukemia was more than 100 µM in each case. Besides, the TGI with NCI-H460 lung and in the assay on SF-295 CNS was more than 100 µM in each case.

Regarding `CC(C)(C)NC1=NC(C(F)(F)F)(C(F)(F)F)NC(=O)N1`, the TGI was more than 100 µM in the assay on HT29 colon; more than 100 µM in the assay on OVCAR-4 ovarian; 79 µM in the assay on HCC-2998 colon; more than 100 µM in the assay with U251 CNS; more than 100 µM in the assay on KM12 colon; more than 100 µM with SR leukemia. Also, the TGI in the assay on NCI-H460 lung and with SF-295 CNS was more than 100 µM throughout.
